From patent US20240116985A1, “STAPLED PEPTIDES AND METHODS THEREOF” (priority 2020, published 2024)
Values after ≈ are worked out from the molar mass of the structure shown. Like-named read-outs stand apart in the source and are kept apart here.

Columns and labels:
Solubility in PBS = assay type: physicochemical
Method in brief: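 Solubility is derived from HPLC peak areas: the ratio of the PBS supernatant peak to a 50 μM DMSO peptide peak, times 50 uM.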

[1] = target: T1, full-length beta-Catenin (Uniprot ID P35222) (Homo sapiens, UniProt P35222); test: Fluorescence polarization IC50 (beta-catenin / 5FAM-TCF4 10-53 competition); assay type: binding
T1 construct: 10 nM full-length beta-Catenin (Uniprot ID P35222)
T1 sequence (P35222 1-781): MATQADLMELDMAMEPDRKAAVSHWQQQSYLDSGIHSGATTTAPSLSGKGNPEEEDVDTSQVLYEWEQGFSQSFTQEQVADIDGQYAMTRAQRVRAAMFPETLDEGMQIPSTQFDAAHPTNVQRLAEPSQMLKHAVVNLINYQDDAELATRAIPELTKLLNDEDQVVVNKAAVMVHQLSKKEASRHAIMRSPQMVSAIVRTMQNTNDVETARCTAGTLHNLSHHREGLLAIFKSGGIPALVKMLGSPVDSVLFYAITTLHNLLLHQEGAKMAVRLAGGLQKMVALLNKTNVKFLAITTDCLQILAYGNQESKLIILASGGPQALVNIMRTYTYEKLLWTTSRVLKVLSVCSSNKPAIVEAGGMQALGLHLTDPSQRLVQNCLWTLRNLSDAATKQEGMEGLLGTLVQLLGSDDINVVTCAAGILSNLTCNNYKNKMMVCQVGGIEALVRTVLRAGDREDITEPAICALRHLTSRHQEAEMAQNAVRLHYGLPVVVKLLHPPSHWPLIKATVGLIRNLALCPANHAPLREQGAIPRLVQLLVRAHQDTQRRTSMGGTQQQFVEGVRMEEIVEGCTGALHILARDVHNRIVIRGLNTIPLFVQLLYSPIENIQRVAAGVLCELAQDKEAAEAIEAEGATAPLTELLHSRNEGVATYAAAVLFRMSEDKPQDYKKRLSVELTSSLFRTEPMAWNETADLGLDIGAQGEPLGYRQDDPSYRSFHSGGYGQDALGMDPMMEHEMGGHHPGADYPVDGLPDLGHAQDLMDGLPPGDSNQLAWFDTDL

[2] = target: T2, beta-catenin/TCF4 engagement (Homo sapiens, UniProt P35222); test: Nano-BRET target engagement assay (B-cat-Halo & TCF4-Luc in HEK293 cells); assay type: cell-based; conditions: for IC50: read-out: NanoBRET Abs IC50
T2 construct: expressed in transfected cells; host or cells: HEK293
T2 sequence (P35222 1-781): T1 sequence (P35222 1-781)

CHI Log D procedure = assay type: physicochemical
[3] = fluorescence polarization, read-out: beta-Catenin FP IC50

| SMILES | Solubility (Solubility in PBS; Solubility (uM)) [µM] | IC50 ([1]; read-out: beta-Catenin FP IC50) [nM] | IC50 [2] [µM] | chromatographic logD (CHI Log D procedure; pH 7.4, CHI Log D) | also measured |
| --- | --- | --- | --- | --- | --- |
| CC(=O)N1CCC[C@]12CC=CCCCC1(CCCC=CCCCOC(=O)N3CC[C@@](C(=O)N[C@@H](Cc4ccsc4)C(=O)N[C@@H](Cc4csc5ccccc45)C(=O)N[C@@H](CCC(N)=O)C(=O)N[C@@H](CCCCNC(=O)C4CCN(C5CCN(C)CC5)CC4)C(N)=O)(C3)NC(=O)[C@H](CC(N)=O)NC(=O)[C@H](Cc3ccccc3)NC(=O)[C@H](C)NC(=O)[C@H](C)NC(=O)[C@H](CC(=O)O)NC(=O)[C@H](CC(=O)O)NC1=O)NC(=O)[C@H](CC(C)(C)C)NC(=O)[C@H](CC(=O)O)NC2=O (stereo partly drawn) [I-907, Ac-PL3-Asp-Npg-B5-Asp-Asp-Ala-Ala-Phe-Asn-PyrS2-3Thi-BztA-Gln-[MeBipipAc]Lys-NH2] | 20 (≈ 45.1 µg/mL) | 9 | 27.8 | 1.8 | – |
| CC(=O)N1CCC[C@]12CC=CCCCC1(CCCC=CCCCOC(=O)N3CC[C@@](C(=O)N[C@@H](Cc4ccsc4)C(=O)N[C@@H](Cc4csc5ccccc45)C(=O)N[C@@H](CCC(N)=O)C(N)=O)(C3)NC(=O)[C@H](CC(N)=O)NC(=O)[C@H](Cc3ccccc3)NC(=O)[C@H](C)NC(=O)[C@H](C)NC(=O)[C@H](CC(C)C)NC(=O)[C@H](CC(=O)O)NC1=O)NC(=O)[C@H](CC(C)(C)C)NC(=O)[C@H](CC(=O)O)NC2=O (stereo partly drawn) [I-846, Ac-PL3-Asp-Npg-B5-Asp-Leu-Ala-Ala-Phe-Asn-PyrS2-3Thi-BztA-Gln-NH2] | 18 (≈ 34.5 µg/mL) | 56 | – | 2.42 | IC50 ([1]; fluorescence polarization, beta-catenin, read-out: FP EC50): 35 nM; inhibition at 10 µM ([2]; HEK293, 10 uM, read-out: NanoBRET % inh @ 10 uM): 4.3% |
| CC(=O)N1CCC[C@]12CC=CCCCC1(CCCC=CCCCOC(=O)N3CC[C@@](C(=O)N[C@@H](Cc4ccsc4)C(=O)N[C@@H](Cc4csc5ccccc45)C(=O)N[C@@H](CCC(N)=O)C(=O)N[C@@H](CCCCNC(=O)C(C)(c4ccccc4)c4ccccc4)C(N)=O)(C3)NC(=O)[C@H](CC(N)=O)NC(=O)[C@H](Cc3ccccc3)NC(=O)[C@H](C)NC(=O)[C@H](C)NC(=O)[C@H](CC(=O)O)NC(=O)[C@H](CC(=O)O)NC1=O)NC(=O)[C@H](CC(C)(C)C)NC(=O)[C@H](CC(=O)O)NC2=O (stereo partly drawn) [I-904, Ac-PL3-Asp-Npg-B5-Asp-Asp-Ala-Ala-Phe-Asn-PyrS2-3Thi-BztA-Gln-[22PhPr]Lys-NH2] | – | 54 | 20 | – | Solubility (Solubility in PBS): 30 µM (≈ 67.6 µg/mL); chromatographic logD (CHI Log D procedure; pH 7.4): 2.65 |
| CC(=O)N1CCC[C@]12CC=CCCCC1(CCCC=CCCCCCC[C@@](C)(C(=O)N[C@@H](Cc3ccccc3)C(=O)N[C@@H](Cc3csc4ccccc34)C(=O)N[C@@H](CCC(N)=O)C(N)=O)NC(=O)[C@H](CC(N)=O)NC(=O)[C@H](Cc3ccccc3)NC(=O)[C@H](C)NC(=O)[C@H](C)NC(=O)[C@H](CC(=O)O)NC(=O)[C@H](CC(=O)O)NC1=O)NC(=O)[C@H](CC(C)(C)C)NC(=O)[C@H](CC(=O)O)NC2=O (stereo partly drawn) [I-546, Ac-PL3-Asp-Npg-B5-Asp-Asp-Ala-Ala-Phe-Asn-S8-Phe-BztA-Gln-NH2] | – | – | – | 2.4 | Solubility (Solubility in PBS): 50 µM (≈ 93.5 µg/mL); IC50 [1, 3]: 16 nM; IC50 ([2]; absolute IC50): 12.1 µM |
| CC(=O)N1CCC[C@]12CC=CCCCC1(CCCC=CCCCOC(=O)N3CC[C@@](C(=O)N[C@@H](Cc4ccsc4)C(=O)N[C@@H](Cc4csc5ccccc45)C(=O)N[C@@H](CCC(N)=O)C(N)=O)(C3)NC(=O)[C@H](CC(N)=O)NC(=O)[C@H](Cc3ccccc3)NC(=O)[C@H](C)NC(=O)[C@H](C)NC(=O)[C@H](CCC(=O)O)NC(=O)[C@H](CC(=O)O)NC1=O)NC(=O)[C@H](CC(C)(C)C)NC(=O)[C@H](CC(=O)O)NC2=O (stereo partly drawn) [I-690, Ac-PL3-Asp-Npg-B5-Asp-Glu-Ala-Ala-Phe-Asn-PyrS2-3Thi-BztA-Gln-NH2] | – | – | – | – | Solubility (Solubility in PBS): 44 µM (≈ 85 µg/mL); IC50 [1, 3]: 7 nM; IC50 ([1]; read-out: FP EC50): 7 nM; IC50 ([2]; absolute IC50): 17.8 µM; CHI Log D (CHI Log D procedure; pH 7.4): 2.013 |
| CC(=O)N1CCC[C@]12CC=CCCCC1(CCCC=CCCCOC(=O)N3CC[C@@](C(=O)N[C@@H](Cc4ccsc4)C(=O)N[C@@H](Cc4csc5ccccc45)C(=O)N[C@@H](CCC(N)=O)C(=O)N[C@@H](CCCCNC(=O)c4ccc(CN5CCN(C)CC5)cc4)C(N)=O)(C3)NC(=O)[C@H](CC(N)=O)NC(=O)[C@H](Cc3ccccc3)NC(=O)[C@H](C)NC(=O)[C@H](C)NC(=O)[C@H](CC(=O)O)NC(=O)[C@H](CC(=O)O)NC1=O)NC(=O)[C@H](CC(C)(C)C)NC(=O)[C@H](CC(=O)O)NC2=O (stereo partly drawn) [I-908, Ac-PL3-Asp-Npg-B5-Asp-Asp-Ala-Ala-Phe-Asn-PyrS2-3Thi-BztA-Gln-[4MePipBz]Lys-NH2] | 44 (≈ 99.6 µg/mL) | 10 | 26 | 1.82 | – |
| CC(=O)N1CCC[C@]12CC=CCCCC1(CCCC=CCCCOC(=O)N3CC[C@@](C(=O)N[C@@H](Cc4ccsc4)C(=O)N[C@@H](Cc4csc5ccccc45)C(=O)N[C@@H](CCC(N)=O)C(=O)N[C@@H](CCCCNC(=O)c4ccc(CN(C)C)cc4)C(N)=O)(C3)NC(=O)[C@H](CC(N)=O)NC(=O)[C@H](Cc3ccccc3)NC(=O)[C@H](C)NC(=O)[C@H](C)NC(=O)[C@H](CC(=O)O)NC(=O)[C@H](CC(=O)O)NC1=O)NC(=O)[C@H](CC(C)(C)C)NC(=O)[C@H](CC(=O)O)NC2=O (stereo partly drawn) [I-910, Ac-PL3-Asp-Npg-B5-Asp-Asp-Ala-Ala-Phe-Asn-PyrS2-3Thi-BztA-Gln-[Me2NCBz]Lys-NH2] | 40 (≈ 88.3 µg/mL) | 10 | 29.8 | 1.84 | – |
| CC(=O)N1CCC[C@]12CC=CCCCC1(CCCC=CCCCOC(=O)N3CC[C@@](C(=O)N[C@@H](Cc4ccccc4)C(=O)N[C@@H](Cc4csc5ccccc45)C(=O)N[C@@H](CCC(N)=O)C(N)=O)(C3)NC(=O)[C@H](CC(N)=O)NC(=O)[C@H](Cc3ccccc3)NC(=O)[C@H](C)NC(=O)[C@H](C)NC(=O)[C@H](CCC(=O)O)NC(=O)[C@H](CC(=O)O)NC1=O)NC(=O)[C@H](C)NC(=O)[C@H](CC(=O)O)NC2=O (stereo partly drawn) [I-462, Ac-PL3-Asp-Ala-B5-Asp-Glu-Ala-Ala-Phe-Asn-PyrS2-Phe-BztA-Gln-NH2] | 49 (≈ 91.6 µg/mL) | – | – | 1.76 | IC50 [1, 3]: 28 nM; IC50 ([2]; absolute IC50): > 20 µM |
| CC(=O)N1CCC[C@]12CC=CCCCC1(CCCC=CCCCOC(=O)N3CC[C@@](C(=O)N[C@@H](Cc4ccsc4)C(=O)N[C@@H](Cc4csc5ccccc45)C(=O)N[C@@H](CCC(N)=O)C(=O)N[C@@H](CCCCNC(=O)CCc4cccc5ccccc45)C(N)=O)(C3)NC(=O)[C@H](CC(N)=O)NC(=O)[C@H](Cc3ccccc3)NC(=O)[C@H](C)NC(=O)[C@H](C)NC(=O)[C@H](CC(=O)O)NC(=O)[C@H](CC(=O)O)NC1=O)NC(=O)[C@H](CC(C)(C)C)NC(=O)[C@H](CC(=O)O)NC2=O (stereo partly drawn) [I-903, Ac-PL3-Asp-Npg-B5-Asp-Asp-Ala-Ala-Phe-Asn-PyrS2-3Thi-BztA-Gln-[1NapPr]Lys-NH2] | 43 (≈ 95.8 µg/mL) | 33 | 7.8 | 2.38 | – |
| CCCCCCCC(=O)NCCCC[C@H](NC(=O)[C@H](CCC(N)=O)NC(=O)[C@H](Cc1csc2ccccc12)NC(=O)[C@H](Cc1ccsc1)NC(=O)[C@]12CCN(C1)C(=O)OCCCC=CCCCC1(CCCC=CC[C@]3(CCCN3C(C)=O)C(=O)N[C@@H](CC(=O)O)C(=O)N[C@@H](CC(C)(C)C)C(=O)N1)C(=O)N[C@@H](CC(=O)O)C(=O)N[C@@H](CC(=O)O)C(=O)N[C@@H](C)C(=O)N[C@@H](C)C(=O)N[C@@H](Cc1ccccc1)C(=O)N[C@@H](CC(N)=O)C(=O)N2)C(N)=O (stereo partly drawn) [I-918, Ac-PL3-Asp-Npg-B5-Asp-Asp-Ala-Ala-Phe-Asn-PyrS2-3Thi-BztA-Gln-[Oct]Lys-NH2] | 44 (≈ 95.6 µg/mL) | 33 | 11.1 | 2.49 | – |
| CC(=O)N1CCC[C@]12CC=CCCCC1(CCCC=CCCCOC(=O)N3CC[C@@](C(=O)N[C@@H](Cc4ccsc4)C(=O)N[C@@H](Cc4csc5ccccc45)C(=O)N[C@@H](CC(N)=O)C(N)=O)(C3)NC(=O)[C@H](CC(N)=O)NC(=O)[C@H](Cc3ccccc3)NC(=O)[C@H](C)NC(=O)[C@H](C)NC(=O)[C@H](CC(=O)O)NC(=O)[C@H](CC(=O)O)NC1=O)NC(=O)[C@H](CC(C)(C)C)NC(=O)[C@H](CC(=O)O)NC2=O (stereo partly drawn) [I-816, Ac-PL3-Asp-Npg-B5-Asp-Asp-Ala-Ala-Phe-Asn-PyrS2-3Thi-BztA-Asn-NH2] | 46 (≈ 87.6 µg/mL) | 5 | 13.7 | 2.05 | – |
